Reference: US9862723B2, “Stable polymorph of the salt of (2R)-4-oxo-4-[3-(trifluoromethyl)-5,6-dihydro[1,2,4]triazolo[4,3-α]pyrazin-7(8H)-yl]-1-(2,4,5-trifluorophenyl)butan-2-anime with L-tartaric acid” (ZENTIVA k.s, priority 2013, dated 2018)

Experiment: Relative stability of the crystalline forms of sitagliptin L-tartrate (polymorph transformation on contamination/seeding with Form Z1)
Format: physicochemical
Settings: for stability of the crystalline form (polymorph) relative to the other form: comparison of WO 2005/072530 crystalline form with Form Z1 of sitagliptin L-tartrate, further experiments
Source text: When studying the properties of salts of (2R)-4-oxo-4-[3-(trifluoromethyl)-5,6-dihydro[1,2,4]triazolo[4,3-α]pyrazin-7(8H)-yl]-1-(2,4,5-trifluorophenyl)butan-2-amine (sitagliptin), a quite new polymorph (Form Z1) of the salt of (2R)-4-oxo-4-[3-(trifluoromethyl)-5,6-dihydro[1,2,4]triazolo[4,3-α]pyrazin-7(8H)-yl]-1-(2,4,5-trifluorophenyl)butan-2-amine (sitagliptin) with L-tartaric acid has been successfully obtained, characterized by the following reflections in the X-ray powder pattern: 5.9; 9.8; 14.2; 19.5; 23.8 and 26.2±0.2° 2-theta.
Preparation of the Salt of (2R)-4-oxo-4-[3-(trifluoromethyl)-5,6-dihydro[1,2,4]triazolo[4,3-α]pyrazin-7(8H)-yl]-1-(2,4,5-trifluorophenyl)butan-2-amine with L-tartaric acid (Mixture of Forms) The salt of (2R)-4-oxo-4-[3-(trifluoromethyl)-5,6-dihydro[1,2,4]triazolo[4,3-α]pyrazin-7(8H)-yl]-1-(2,4,5-trifluorophenyl)butan-2-amine (sitagliptin) with L-tartaric acid, prepared in accordance with Example 1 (according to WO 2005/072530) (2 g) was suspended in propan-2-ol (50 ml) and the suspension was heated up to 50° C. under constant agitation. The polymorph Z1 (0.1 g) prepared in accordance with Example 2 was added to the white suspension. The mixture was agitated at the same temperature for 20 minutes and after cooling to 20° C. the product was filtered off and washed with a small amount of propan-2-ol. The obtained product was dried in a vacuum drier at 40° C. 1.9 g of a mixture of forms was obtained, Form Z1 being enriched considerably.

Row | Compound | stability of the crystalline form (polymorph) relative to the other form | transformation of the original polymorph to Form Z1 (inconsiderable contamination by Form Z1, even under the conditions in which the original crystalline form is prepared)
1 | N[C@@H](CC(=O)N1CCn2c(nnc2C(F)(F)F)C1)Cc1cc(F)c(F)cc1F.O=C(O)C(O)C(O)C(=O)O [Form Z1, salt of (2R)-4-oxo-4-[3-(trifluoromethyl)-5,6-dihydro[1,2,4]triazolo[4,3-α]pyrazin-7(8H)-yl]-1-(2,4,5-trifluorophenyl)butan-2-amine (sitagliptin) with L-tartaric acid] | more stable | 
2 | N[C@@H](CC(=O)N1CCn2c(nnc2C(F)(F)F)C1)Cc1cc(F)c(F)cc1F.O=C(O)C(O)C(O)C(=O)O [previously described crystalline form, Salt of (2R)-4-oxo-4-[3-(trifluoromethyl)-5,6-dihydro[1,2,4]triazolo[4,3-α]pyrazin-7(8H)-yl]-1-(2,4,5-trifluorophenyl)butan-2-amine with L-tartaric acid] | significantly less stable | very quick transformation
